# Reference: patent US20100311581A1, “Azolylmethyloxiranes, use Thereof and Agents Containing the Same” (BASF SE, priority 2007, published 2010)
# Like-named read-outs stand apart in the source and are kept apart here.
# Legend:
# Septoria tritici = assay: Activity against Septoria leaf blotch Septoria tritici in the microtiter test (Septtr); assay type: cell-based
# Pyriculana oryzae = assay type: cell-based
# Leptosphaeria nodorum = assay: Activity against glume blotch Leptosphaeria nodorum in the microtiter test (Leptno); assay type: cell-based
# Phakopsora pachyrhizi = assay: Curative activity against soya rust caused by Phakopsora pachyrhizi (Phakpa K1), greenhouse; assay type: in vivo; details: curative spray on soya seedlings, visual rating after 14 days in greenhouse, untreated 90% attack
# [1] = Comparison tests, microtiter test
# [2] = microtiter plate, 7th day after inoculation, 405 nm, relative to active compound-free control (100%)
# [3] = 31 ppm, microtiter plate, seventh day after inoculation, 405 nm, relative to active compound-free control (=100%)
# [4] = Comparison tests, 31 ppm, microtiter test
compound,measurement,setting,value
Fc1ccccc1[C@@]1(Cn2nc[nH]c2=S)O[C@@H]1c1ccccc1Cl,Growth in % at 31 ppm with Septtr,Septoria tritici; [1],58%
"CCOP(=S)(OCC)Sc1ncnn1C[C@]1(c2cccc(F)c2)O[C@@H]1c1ccccc1Cl (relative stereo) [Example 10, S-1-[rel-(2S,3R)-3-(2-chlorophenyl)-2-(3-fluorophenyl)oxiran-2-ylmethyl]-1H-1,2,4-triazole-5-yl O,O-diethyl phosphorodithioate]",Growth in % at 31 ppm with Pyrior,Pyriculana oryzae,0%
"COC(=O)Sc1ncnn1C[C@]1(c2cccc(F)c2)O[C@@H]1c1ccccc1Cl (relative stereo) [Example 12, methyl {2-[rel-(2S,3R)-3-(2-chlorophenyl)-2-(3-fluorophenyl)-oxiranylmethyl]-2H-[1,2,4]triazole-3-yl}thiocarbonate]",Growth in % at 31 ppm with Leptno,Leptosphaeria nodorum; [1],0%
same,Growth in % at 31 ppm with Leptno,"Leptosphaeria nodorum; microtiter plate, 7th day after inoculation, 405 nm, relative to active compound-free control",0%
same,Growth in % at 31 ppm with Septtr,Septoria tritici; [1],25%
"Cc1ccccc1[C@H]1O[C@]1(Cn1nc[nH]c1=S)c1cccc(F)c1 (relative stereo) [Example 3, 1-[rel-(2S,3R)-2-(3-fluorophenyl)-3-o-tolyloxiran-2-ylmethyl]-1H-1,2,4-triazole-5(4H)-thione]",Growth in % at 31 ppm with Septtr,Septoria tritici; [2],11%
"CSc1ncnn1C[C@]1(c2cccc(F)c2)O[C@@H]1c1ccccc1F (relative stereo) [Example 4, 1-[rel-(2S,3R)-3-(2-fluorophenyl)-2-(3-fluorophenyl)oxiran-2-ylmethyl]-5-(methylthio)-1H-1,2,4-triazole]",Growth in % at 31 ppm with Pyrior,Pyriculana oryzae; [3],0%
same,Growth in % at 31 ppm with Pyrior,Pyriculana oryzae; [4],0%
"CSc1ncnn1C[C@]1(c2cccc(F)c2)O[C@@H]1c1ccccc1C (relative stereo) [Example 5, 1-rel-[(2S,3R)-2-(3-fluorophenyl)-3-o-tolyloxiran-2-ylmethyl]-5-(methylthio)-1H-1,2,4-triazole]",Growth in % at 31 ppm with Pyrior,Pyriculana oryzae; [3],0%
"COC(=O)Sc1ncnn1CC1(c2ccc(F)cc2)OC1c1ccccc1Cl (stereo not shown) [WO9742178, p. 55 (4th compound)]",Growth in % at 31 ppm with Leptno,Leptosphaeria nodorum; [1],100%
same,Growth in % at 31 ppm with Septtr,Septoria tritici; [1],100%
"N#CSc1ncnn1C[C@]1(c2cccc(F)c2)O[C@@H]1c1ccccc1Cl (relative stereo) [Example 9, 1-[rel-(2S,3R)-3-(2-chlorophenyl)-2-(3-fluorophenyl)oxiran-2-ylmethyl]-5-thiocyanato-1H-1,2,4-triazole]",Growth in % at 31 ppm with Septtr,Septoria tritici; [2],49%
"CSc1ncnn1C[C@]1(c2cccc(F)c2)O[C@@H]1c1ccccc1Cl (relative stereo) [Example 6, 1-[rel-(2S,3R)-3-(2-chlorophenyl)-2-(3-fluorophenyl)oxiran-2-ylmethyl]-5-(methylthio)-1H-1,2,4-triazole]",Attack in % at 600 ppm with Phakpa K1,Phakopsora pachyrhizi,0%
"Fc1cccc([C@@]2(Cn3nc[nH]c3=S)O[C@@H]2c2ccccc2Cl)c1 (relative stereo) [Example 1, 1-[rel-(2S,3R)-3-(2-chlorophenyl)-2-(3-fluorophenyl)oxiran-2-ylmethyl]-1H-1,2,4-triazole-5(4H)-thione]",Growth in % at 31 ppm with Septtr,Septoria tritici; [1],21%
same,Growth in % at 31 ppm with Septtr,Septoria tritici; [2],21%
"CSc1ncnn1C[C@]1(c2ccc(F)cc2)O[C@@H]1c1ccccc1F [WO9638440, p. 17 (4th compound),]",Growth in % at 31 ppm with Pyrior,Pyriculana oryzae; [4],100%
